Each structure is given as a SMILES string. Several values for one entry are separate records, joined by “and”; a condition that tells them apart may be missing. Equal entries are not always repeated. Activity calls are given as the source filed them.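 How the source made its calls: active means compounds raising the signal whose fitted half-maximal concentration is at or below their top tested dose (cut at about 25 µM in these data); inconclusive means flat fit at 30 to 70% activity, or a poor fit; inactive means the rest.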

The assay deals with INS-1E rat beta cells, no cytokines, CellTiter-Glo ATP, 48 h. Kind of assay: ATP level change in INS-1E without cytokines, dose response, counter-screen for beta-cell apoptosis protection project, INS-1E rat cells, ATP luminescence, cherry pick (AID 463229). In general terms: A counterscreen serves to expose hits that act by an unwanted route or on another target.
As usually defined, the AC50 is the concentration at which the activity in the assay is half-maximal. For `Cc1cc(C)c(S(=O)(=O)/N=C2\C=C(Nc3ccc(C(=O)O)cc3)C(=O)c3ccccc32)c(C)c1`, the AC50 is 5.39 µM. With `CC1CC(=O)c2c(cc3c(-c4c(O)cc(O)c5c(O)c6c(cc45)OC(C)CC6=O)c(O)cc(O)c3c2O)O1` (stereo not given) the figure was 5.1 µM.

Take `CCCCCCCCCC[N+](C)(C)CC/C=C1/c2ccccc2Sc2ccc(Cl)cc21`: the AC50 was 7.99 µM.

Consider `NC1=NC[C@H](Cc2ccccc2)N1CCCCC1CCCCC1`, for which the AC50 was 6.91 µM.

Consider `CCCC12C(=O)C(C)(C(c3ccccc3)=C1c1ccccc1)C1C(=O)N(c3ccc(C)cc3)C(=O)C12` (stereo not given), for which the AC50 was 4.4 µM. With `CC(C)(C)c1ccc(OCc2ccc(C(=O)N/N=C/c3ccc(O)c(O)c3)cc2)cc1` the figure was 8.35 µM; with `N/C(=N\NC(=O)c1sccc1OCc1ccc(Cl)cc1Cl)c1ccccn1`, 11.8 µM; with `CC1CCN(Cc2c(C(=O)N/N=C/c3cc(Cl)ccc3O)nnn2-c2nonc2N)CC1`, 2.08 µM. As for `CCN(CC)Cc1c(O)ccc2c1O/C(=C\C=C\c1ccccc1)C2=O`, the figure is 14.4 µM. With `COc1ccc(C)cc1Nc1n[n+](-c2ccccc2)c(-c2ccc(N(C)C)cc2)s1` the figure was 2.9 µM. In the case of `Cc1cc(F)ccc1S(=O)(=O)Nc1ccccc1C(=O)Nc1ccccc1-c1nc2ccccc2[nH]1`, the AC50 is 7.72 µM. As for `CC(=O)NC(c1ccc(C(C)C)cc1)c1ccc2cccnc2c1O` (stereo not given), the figure is 1.98 µM. As for `CC1CCCCC1NS(=O)(=O)c1ccc(S(=O)(=O)NCc2ccncc2)cc1` (stereo not given), the half-maximal activity concentration (AC50) was 4.07 µM. As for `O=C(N/N=C/c1sc2ccccc2c1O)c1ccccc1`, the figure is 3.92 µM; as for `O=[N+]([O-])c1ccc(O)c(/C=N/NC(=S)Nc2ccc(Cl)cc2Cl)c1`, 17.9 µM. With `O=[N+]([O-])c1cccc(-c2cn3nc(-c4ccccc4)c(-c4ccccc4)nc3n2)c1` the figure was 10 µM; with `COc1cccc(F)c1C(C[N+](=O)[O-])c1c(N)n(C)c(=O)n(C)c1=O` (stereo not given), 8.3 µM; with `S=C(Nc1ccc(Cl)cc1)Nc1cccc2cnccc12`, 22.2 µM. As for `COc1cccc(C(=O)Oc2c(Br)cc(Br)cc2/C=N/NC(=O)c2cc(C)[nH]n2)c1`, the AC50 was 7.17 µM.

For `COc1ccc(C)cc1Nc1n[n+](-c2ccccc2)c(-c2ccc(OC)c(OC)c2OC)s1`, the AC50 was 14.5 µM. With `CC(=O)Oc1c(I)cc(I)cc1C(=O)Nc1ccc(Cl)cc1` the figure was 14.8 µM. As for `CCCCCCC[N+](CC)(CC)CCCCc1ccc(Cl)cc1`, the figure is 4.93 µM; as for `Cc1ccc2nc(NC(=O)/C=C/c3ccc4c(c3)OCO4)sc2c1`, 7.35 µM; as for `Cc1cc(C(=O)NC2CCCc3c2cnn3-c2cccc(C)c2C)n(C)n1` (stereo not given), 0.342 µM. As for `Cc1cc2c(NCCc3ccccc3)ncnc2s1`, the figure is 2.95 µM. Turning to `Oc1cccc2ccc(Nc3ccccn3)nc12`, the AC50 is 2.27 µM.

Turning to `Cc1ccc(NC(=O)C2CCN(S(=O)(=O)c3ccc4c(c3)NC(=O)C(C)S4)CC2)cc1Cl` (stereo not given), the AC50 is 4.64 µM.

For `COc1ccc(-c2n(Cc3ccccc3)c3ccccc3[n+]2Cc2ccccc2)cc1`, the AC50 is 3.95 µM. As for `CCOc1ccc(C(Nc2cccnc2)c2cc(Cl)c3cccnc3c2O)cc1` (stereo not given), the figure is 7.33 µM; as for `COc1ccc(Cl)c(Cn2c(NCc3ccco3)nc3c2c(=O)n(C)c(=O)n3C)c1`, 13.1 µM; as for `Cc1cc(C)c2c(N)c3cccc(C)c3nc2n1`, 7.91 µM.

As for `O=S1(=O)C=C(Sc2nnc(-c3ccccc3)o2)c2ccccc21`, the AC50 was 7.96 µM.

As to `Oc1ccccc1/C=N/Nc1nccnc1Cl`, the AC50 is 3.97 µM. As for `Cc1occc(=O)c1OC(=O)Nc1ccc(Cl)c(Cl)c1`, the figure is 7.74 µM; as for `O=C(c1ccco1)N1N=C(c2ccc(Br)cc2)CC1c1ccco1` (stereo not given), 24.2 µM.

With `COc1ccc(Cn2cc3c(-c4ccc(F)cc4)nnc-3c3cc(OC)c(OC)cc32)cc1`, the AC50 is 9.02 µM. With `CC(C)(C)n1nnnc1C(c1ccc(F)cc1)N(Cc1ccc(F)cc1)Cc1ccco1` (stereo not given) the figure was 9.25 µM; with `COc1ccc(C)cc1NS(=O)(=O)c1ccc(NC(=O)CN(c2cc([N+](=O)[O-])ccc2C)S(C)(=O)=O)cc1`, 1.11 µM; with `CCCCNc1c(-c2ccc(OC)c(SC(C)CC)c2)nc2ccc(C)cn12` (stereo not given), 4.44 µM. As for `COCCn1c(SCC(=O)/C=C2\N(C)c3ccccc3C2(C)C)nnc1-c1ccncc1`, the figure is 13.1 µM; as for `O=C(NC1(Cc2ccccc2)CCN(CCCc2ccccc2)C1=O)c1ccccc1` (stereo not given), 4.71 µM; as for `FC(F)Sc1ccc(N=C2NN=C(c3ccc4c(c3)OCCO4)CS2)cc1`, 2.9 µM. For `CCC[N+]1(CC#CCC(c2ccccc2)c2ccccc2)CCCCC1`, the AC50 was 2.03 µM. With `COc1ccc(O)c(/C=N/NC(=O)c2ccc(CSc3nc(C)cc(C)n3)cc2)c1` the figure was 11.2 µM. As for `C=C1CCc2c([nH]c3ccc(OCC(C)C)cc23)C1=O`, the figure is 7.5 µM; as for `O=Nc1c(O)c2ccccc2c2ccccc12`, 7.61 µM. As for `CCCCCCCCCCCCCCCC[N+](C)(C)C`, the figure is 7.81 µM; as for `CC(=O)N1CCc2cc(S(=O)(=O)NCCC3=CCCCC3)ccc21`, 7.63 µM; as for `Clc1ccccc1Nc1nnc(-c2ccncc2)s1`, 4.64 µM. In the case of `Cc1ccc(NC2=CC(=O)C(=O)c3ccccc32)c(C)c1`, the AC50 was 4.39 µM.

`COc1ccccc1NC(=O)Cn1cc(C(=O)c2ccco2)c2ccccc21`: the AC50 is 8.7 µM. As for `FC(F)(F)c1ccccc1NC(=S)N1CCN(Cc2ccc3c(c2)OCO3)CC1`, the figure is 7.35 µM. With `Cc1c(C)c2cccnc2c2ncccc12` the figure was 2.49 µM; with `Cc1cccc(C(=O)Nc2ccc(C(=O)/C=C/c3cccnc3)cc2)c1`, 7.53 µM; with `NS(=O)(=O)c1ccc(N/N=C2/CCCCC2C2CCCCC2)c([N+](=O)[O-])c1` (stereo not given), 8.1 µM. As for `CC(=O)Nc1ccccc1OCC(=O)c1cc(C)n(Cc2cccs2)c1C`, the figure is 1.01 µM. Turning to `O=c1c2ccccc2nc(N/N=C/c2c(O)ccc3ccccc23)n1O`, the AC50 is 3.65 µM. With `Cc1ccc(NS(=O)(=O)c2cc([N+](=O)[O-])ccc2N/N=C/c2sc(N3CCOCC3)nc2-c2ccccc2)c(C)c1` the figure was 11.9 µM; with `COc1ccccc1-n1c(-c2ccccc2)c[n+]2c1CCc1ccccc1-2`, 2.16 µM and 3.41 µM; with `COc1ccc(Cc2nnc(N/N=C/c3ccccc3O)[nH]c2=O)cc1OC`, 4.32 µM. With `CCn1c(C)nc2cc(C(=O)N/N=C/c3cccc(O)c3O)ccc21` the figure was 8.42 µM; with `CCC(C)Nc1nc(-c2ccccn2)nc2ccccc12` (stereo not given), 9.01 µM. As for `COc1ccc(CCNC(=O)c2cc3c(=O)n4cccc(C)c4nc3n(Cc3ccco3)c2=N)cc1OC`, the figure is 9.18 µM; as for `Cc1ccc(Nc2c(-c3ccccn3)nc3ccc(C)cn23)cc1`, 7.28 µM; as for `O=C(N/N=C/c1cc(Cl)ccc1O)c1cccnc1`, 8.72 µM. For the molecule `COc1ccc(O)c(C(=O)c2cnc3nc4ccccc4n3c2)c1`, the AC50 was 6.33 µM. As for `COc1ccc(OC)c(NC(=O)c2nc(S(=O)(=O)Cc3ccccc3)ncc2Cl)c1`, the figure is 7.87 µM; as for `CCC(/C=C1\Sc2ccc(OC)cc2N1CC)=C\c1sc2ccc(OC)cc2[n+]1CCCS(=O)(=O)[O-]`, 5.74 µM. As for `Cc1cc(C)c2nc(NNC(=O)c3ccc(S(=O)(=O)N4CCCC(C)C4)cc3)sc2c1` (stereo not given), the figure is 4.52 µM; as for `C#CCOCCOCCOCCNc1nc(N2CCN(C(=O)CCCCCCCCCCNC(=O)[C@@H](CCSC)n3cc(CCO)nn3)CC2)nc(N2CCN(C(=O)CCCCCCCCCCNC(=O)[C@H]([C@@H](C)CC)n3cc(CCCCCN)nn3)CC2)n1`, 12.9 µM; as for `CCCCNc1cc(C)nc(NCc2ccccc2)n1`, 8.1 µM. As to `COc1cc(NC(C)CCCN)c2ncccc2c1` (stereo not given), the AC50 was 13.8 µM. As for `CC(=O)N(Cc1ccc(F)cc1)C1=C(NCCc2ccccc2)C(=O)c2ccccc2C1=O`, the figure is 4.13 µM; as for `Cc1ccc(C#CC[N+]2(CC#Cc3ccc(C)cc3)CCCCC2)cc1`, 3.33 µM.

In the case of `CC(=O)c1cccc(NS(=O)(=O)c2ccc(N/C=C/C(=O)c3ccc(F)cc3)cc2)c1`, the AC50 is 5.02 µM. With `NNc1nc(-c2ccccc2)cc(-c2ccccc2O)n1` the figure was 17.7 µM; with `FC(F)(F)c1nc2ccccc2n2c(-c3ccc(Cl)cc3)nnc12`, 7.14 µM; with `CCOc1ccc(Nc2c3ccccc3nc3ccccc23)cc1`, 7.36 µM. As for `CCC(=O)NC(c1cc(Cl)c2cccnc2c1O)C1CC1` (stereo not given), the figure is 6.34 µM; as for `CCCOc1cc(NCc2ccccc2)c2ncn(C(C)C)c2c1`, 7.28 µM. With `Cc1cc(C)c2nc(NNC(=O)c3ccc(S(=O)(=O)N4CC(C)CC(C)C4)cc3)sc2c1` (stereo not given), the AC50 is 4.75 µM. With `N#CC(c1cccc(Cl)c1)c1ccc2c(C(F)(F)F)cc(C(F)(F)F)nc2n1` (stereo not given) the figure was 0.868 µM. With `COc1cc(C(=O)NC(=S)NNC(=O)c2cnccn2)cc(OC)c1OC` the figure was 7.66 µM; with `c1ccc(CSc2ccc(-c3ccccn3)nn2)cc1`, 18.8 µM; with `CCc1ccc(S(=O)(=O)/N=C2/C=C(Sc3ncn[nH]3)C(=O)c3ccccc32)cc1`, 9.6 µM. With `COc1cc(C(=O)Oc2c(CN3CCOCC3)cc(Cl)c3cccnc23)cc(OC)c1OC` the figure was 13.3 µM. With `CCCNC1=C(N(C(C)=O)c2cccc(F)c2)C(=O)c2ccccc2C1=O`, the AC50 is 3.06 µM. As for `C[n+]1c2n(c3ccccc31)N=C(c1ccc(-c3ccccc3)cc1)CS2`, the figure is 1.74 µM. As for `CCN(CC)c1ccc2nc3ccccc3[n+](CC)c2c1`, the figure is 3.19 µM; as for `Cc1cc(C)c2nc(NNC(=O)c3ccc(S(=O)(=O)N4CCc5ccccc5C4)cc3)sc2c1`, 3.39 µM; as for `Brc1ccccc1CN1CCN(Cc2c[nH]c3ccccc23)CC1`, 2.76 µM. Take `O=C(Nc1ccc(Cc2ccncc2)cc1)c1ccc([N+](=O)[O-])o1`: the AC50 is 10.1 µM. As for `COc1ccc(-c2nn(-c3ccccc3)cc2C(=O)OCC(=O)c2ccc(C)c([N+](=O)[O-])c2)cc1`, the figure is 0.866 µM; as for `Cc1ccc2c(c1)c(/C=C/c1cc[n+](C)cc1)c(C)n2C`, 3.97 µM.

Consider `Cc1ccc(Sc2cc(C)nc(-c3ccccn3)n2)cc1`, for which the AC50 was > 26 µM (inactive).

Values taken from PubChem BioAssay AID463229 (Broad Institute, 2010).
